Experiment: xn = mol fraction of the nth substance listed
Conditions: 101 kPa

CCCC(=O)OCC + C1CCCCC1
viscosity [mPa·s]
Conditions | 298.15 K | 308.15 K
x1 = 0.0551 | 0.852 | 0.72
x1 = 0.1552 | 0.796 | 0.667
x1 = 0.2554 | 0.75 | 0.626
x1 = 0.3554 | 0.711 | 0.594
x1 = 0.4504 | 0.682 | 0.573
x1 = 0.4992 | 0.669 | 0.564
x1 = 0.5558 | 0.656 | 0.557
x1 = 0.6532 | 0.638 | 0.549
x1 = 0.7547 | 0.624 | 0.548
x1 = 0.8532 | 0.616 | 0.554
x1 = 0.9564 | 0.613 | 0.568

CCCCN + C1CCCCC1
viscosity [mPa·s]
Conditions | 303.15 K | 313.15 K
x1 = 0.00966 | 0.8095 | 0.7083
x1 = 0.01973 | 0.8005 | 0.6998
x1 = 0.02822 | 0.7907 | 0.6925
x1 = 0.03804 | 0.7823 | 0.6831
x1 = 0.04713 | 0.7702 | 0.6749
x1 = 0.05811 | 0.758 | 0.6646
x1 = 0.0674 | 0.7469 | 0.6553
x1 = 0.07236 | 0.7374 | 0.6487
x1 = 0.08731 | 0.7267 | 0.637
x2 = 0.1009 | 0.453 | –
x2 = 0.2007 | 0.467 | –
x2 = 0.3012 | 0.492 | –
x2 = 0.3987 | 0.501 | –
x2 = 0.4982 | 0.529 | –
x2 = 0.5729 | 0.553 | –
x2 = 0.7003 | 0.601 | –
x2 = 0.7863 | 0.652 | –
x2 = 0.8993 | 0.725 | –

CCCCN + C1COCCO1
298.15 K
Conditions | viscosity [mPa·s]
x1 = 0.05 | 1.094
x1 = 0.1 | 1.019
x1 = 0.1005 | 1.018
x1 = 0.15 | 0.953
x1 = 0.2 | 0.896
x1 = 0.2025 | 0.893
x1 = 0.25 | 0.846
x1 = 0.2973 | 0.806
x1 = 0.3 | 0.801
x1 = 0.35 | 0.761
x1 = 0.3935 | 0.726
x1 = 0.4 | 0.725
x1 = 0.45 | 0.692
x1 = 0.4987 | 0.665
x1 = 0.5 | 0.662
x1 = 0.55 | 0.634
x1 = 0.5971 | 0.609
x1 = 0.6 | 0.609
x1 = 0.65 | 0.585
x1 = 0.6965 | 0.566
x1 = 0.7 | 0.564
x1 = 0.75 | 0.545
x1 = 0.7959 | 0.529
x1 = 0.8 | 0.528
x1 = 0.85 | 0.512
x1 = 0.9 | 0.498
x1 = 0.9041 | 0.497
x1 = 0.95 | 0.486

CCCCN + C=C(C)C(=O)OC
303.15 K
Conditions | viscosity [mPa·s]
x2 = 0.1016 | 0.4525
x2 = 0.1939 | 0.4608
x2 = 0.3316 | 0.4724
x2 = 0.4989 | 0.4852
x2 = 0.5966 | 0.4921
x2 = 0.8001 | 0.5045
x2 = 0.9006 | 0.5097

O=[N+]([O-])[O-].[Ag+] + CC#N
298.15 K
Conditions | viscosity [mPa·s]
x1 = 0.012 | 0.409
x1 = 0.03806 | 0.524
x1 = 0.1017 | 1.046
x1 = 0.2421 | 6.48

O=C(O)C(Cl)(Cl)Cl + CC(=O)O
298.15 K
Conditions | viscosity [mPa·s]
x1 = 0.0737 | 1.532
x1 = 0.1777 | 2.228
x1 = 0.3209 | 3.362
x1 = 0.4348 | 4.346
x1 = 0.5262 | 5.176
x1 = 0.5853 | 5.859
x1 = 0.6581 | 6.854

CC(=O)[O-].[NH4+] + CC(=O)[O-].CC[n+]1ccn(C)c1
Conditions | viscosity [mPa·s]
298.15 K, x1 = 0.0503 | 152.5
303.15 K, x1 = 0.1703 | 185.5

O=C(O)C(Cl)(Cl)Cl + CC(=O)c1ccccc1
298.15 K
Conditions | viscosity [mPa·s]
x1 = 0.0896 | 2.112
x1 = 0.14 | 2.402
x1 = 0.2121 | 2.931
x1 = 0.2939 | 3.735
x1 = 0.409 | 5.54
x1 = 0.4876 | 7.349
x1 = 0.5794 | 9.33
x1 = 0.6815 | 11.15

— the CheMixHub viscosity set
